Results from PMC4996933, “Shared active site architecture between archaeal PolD and multi-subunit RNA polymerases revealed by X-ray crystallography” (Nature Communications, 2016).

Target: T1, PolD DP1 (144-622), proofreading exonuclease subunit (Pyrococcus abyssi, UniProt Q9V2F3)
T1 construct: gene polB; residues 144-622, flexible N-terminal region removed; N-terminal 14-His tag cut with TEV; E. coli BL21(DE3) Rosetta2; di-metal site Fe3+/Zn2+; two copies in the asymmetric unit
T1 sequence (Q9V2F3 141-619): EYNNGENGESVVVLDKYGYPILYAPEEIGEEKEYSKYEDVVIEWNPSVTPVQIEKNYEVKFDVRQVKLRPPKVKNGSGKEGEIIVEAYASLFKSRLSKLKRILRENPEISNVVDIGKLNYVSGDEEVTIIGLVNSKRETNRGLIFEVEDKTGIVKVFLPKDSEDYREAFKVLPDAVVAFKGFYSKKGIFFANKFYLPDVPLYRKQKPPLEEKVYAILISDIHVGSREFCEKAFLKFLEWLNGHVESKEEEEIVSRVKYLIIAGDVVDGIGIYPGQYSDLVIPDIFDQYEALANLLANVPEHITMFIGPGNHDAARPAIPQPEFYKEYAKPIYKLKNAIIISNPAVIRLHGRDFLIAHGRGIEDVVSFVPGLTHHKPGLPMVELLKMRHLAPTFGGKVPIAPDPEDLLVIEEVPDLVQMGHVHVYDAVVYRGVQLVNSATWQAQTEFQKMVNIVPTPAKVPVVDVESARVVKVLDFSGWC
Assay: X-ray crystallography, co-crystallization, […] Å
Type: binding
Details: 5 mM dAMP, pH 6.7, 4 °C; Fe3+/Zn2+ nuclease active site; calcium acetate in crystallization buffer

Nc1ncnc2c1ncn2[C@H]1C[C@H](O)[C@@H](COP(=O)(O)O)O1 [dAMP]
X-ray crystallography, co-crystallization, 2.5 Å: DP1 was co-crystallized together with deoxy-adenosine monophosphate (dAMP)
